Measurements as given in ChEMBL document CHEMBL6103656, “Discovery of BT-114143, a Novel and Potent Phosphoric Acid-Containing Small-Molecule Plasminogen Activation Inhibitor for Hyperfibrinolysis” (J Med Chem, 2025).
The source made the active and inactive calls. No cut-off for these calls is given here.

Legend:
Blood = assay: Ratio of compound IC50 to TXA IC50 in anti-fibrinolytic activity in healthy human fresh blood by plasma clot lysis; type: functional
[1] = target: Tissue-type plasminogen activator (Homo sapiens) (UniProt P00750); assay: Inhibition of recombinant human tissue plasminogen activator (rt-PA)-induced fibrinolysis in human fresh whole blood assessed as thrombus dissolution within 30 mins after reaching maximum amplitude (LY30) by thromboelastography analysis; type: functional, tissue-based
[2] = Maximum tolerated dose in beagle dog treated intravenously twice a day; type: toxicity, organism-based, Canis lupus familiaris; settings: in vivo, route iv
[3] = target: Voltage-gated inwardly rectifying potassium channel KCNH2 (Homo sapiens, UniProt Q12809); assay: Inhibition of hERG; type: toxicity
Plasminogen [4] = target: T1, Plasminogen (Homo sapiens, UniProt P00747); assay: Inhibition of plasminogen activation assessed as inhibition of recombinant human tissue plasminogen activator (rt-PA)-induced clot lysis measured after clot lysis pre-incubated for 15 mins by buffer clot lysis assay
Plasminogen [5] = target: T1, Plasminogen; assay: Binding affinity to biotinylated Plasminogen (unknown origin) assessed as dissociation constant by surface plasmon resonance (SPR) analysis
[6] = target: T2, GABA-A receptor; alpha-1/beta-2/gamma-2 (Homo sapiens, UniProt P14867+P18507+P47870); assay: Inhibition of GABA-A receptor alpha1beta2gamma2 (unknown origin); type: toxicity
T2 sequence (P14867 whole entry): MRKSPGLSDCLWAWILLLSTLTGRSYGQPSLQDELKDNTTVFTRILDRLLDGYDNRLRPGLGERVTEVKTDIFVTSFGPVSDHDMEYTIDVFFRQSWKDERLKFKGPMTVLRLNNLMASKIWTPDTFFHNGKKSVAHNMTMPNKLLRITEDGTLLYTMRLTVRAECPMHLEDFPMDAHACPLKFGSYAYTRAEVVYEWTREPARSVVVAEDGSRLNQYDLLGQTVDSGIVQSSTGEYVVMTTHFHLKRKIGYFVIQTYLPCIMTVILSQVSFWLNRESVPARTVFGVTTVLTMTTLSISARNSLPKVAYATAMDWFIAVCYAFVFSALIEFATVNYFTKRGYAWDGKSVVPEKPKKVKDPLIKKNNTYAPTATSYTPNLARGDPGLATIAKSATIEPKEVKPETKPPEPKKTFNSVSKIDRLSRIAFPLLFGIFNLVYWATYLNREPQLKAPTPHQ
T2 sequence (P47870 whole entry): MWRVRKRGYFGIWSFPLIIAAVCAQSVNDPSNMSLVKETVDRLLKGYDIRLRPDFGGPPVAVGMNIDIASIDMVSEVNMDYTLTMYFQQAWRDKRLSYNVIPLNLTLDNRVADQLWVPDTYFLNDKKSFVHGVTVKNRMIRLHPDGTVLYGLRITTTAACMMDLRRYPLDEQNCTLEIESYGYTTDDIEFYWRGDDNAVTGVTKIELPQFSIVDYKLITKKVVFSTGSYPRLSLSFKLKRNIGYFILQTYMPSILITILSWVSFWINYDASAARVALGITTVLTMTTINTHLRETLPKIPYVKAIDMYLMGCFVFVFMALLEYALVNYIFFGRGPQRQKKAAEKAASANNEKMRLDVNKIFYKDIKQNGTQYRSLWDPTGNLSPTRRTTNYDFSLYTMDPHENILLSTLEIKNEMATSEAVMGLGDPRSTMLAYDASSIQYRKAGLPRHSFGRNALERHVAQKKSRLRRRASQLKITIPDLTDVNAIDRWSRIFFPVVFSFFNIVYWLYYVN
T2 sequence (P18507 whole entry): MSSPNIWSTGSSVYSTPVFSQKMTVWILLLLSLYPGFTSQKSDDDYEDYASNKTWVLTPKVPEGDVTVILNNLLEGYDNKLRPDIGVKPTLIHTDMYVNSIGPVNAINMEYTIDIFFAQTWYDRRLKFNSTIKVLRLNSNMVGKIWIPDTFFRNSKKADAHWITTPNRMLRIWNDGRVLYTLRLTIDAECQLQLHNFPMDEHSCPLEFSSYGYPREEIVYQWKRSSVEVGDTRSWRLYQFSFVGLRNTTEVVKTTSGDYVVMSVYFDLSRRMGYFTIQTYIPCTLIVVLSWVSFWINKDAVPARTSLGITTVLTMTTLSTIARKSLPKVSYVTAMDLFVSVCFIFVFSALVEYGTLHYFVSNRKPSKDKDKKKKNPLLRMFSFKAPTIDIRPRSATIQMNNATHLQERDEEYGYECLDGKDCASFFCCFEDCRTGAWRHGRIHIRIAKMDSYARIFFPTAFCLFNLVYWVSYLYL

[7] = Half life in beagle dog at 2 mg/kg, iv measured upto 24 hrs by LC-MS/MS analysis; type: ADME, organism-based, Canis lupus familiaris; settings: in vivo
[8] = AUC (0 to infinity) in beagle dog at 2 mg/kg, IM measured upto 24 hrs by LC-MS/MS analysis; type: ADME, organism-based, Canis lupus familiaris; settings: in vivo
[9] = Toxicity in beagle dog assessed as no observed adverse effect level (NOAEL) treated for 14 days; set-up: species or system Canis lupus familiaris; settings: in vivo, time 14 day
Rattus norvegicus [10] = assay: Hemostatic effect in rt-PA enhanced Sprague-Dawley rat tail bleeding model assessed as reduction in tail bleeding time at 5 mg/kg infused into right jugular vein; type: functional, organism-based; settings: route iv
[11] = Half life in Sprague-Dawley rat at 2 mg/kg, iv measured upto 24 hrs by LC-MS/MS analysis; type: ADME, organism-based; settings: in vivo
[12] = (§1) Inhibition of Plasminogen (unknown origin) binding to fibrin (unknown origin) interaction by surface plasmon resonance (SPR) analysis; set-up: species or system Homo sapiens
Homo sapiens = species: Homo sapiens; assay: as §1
[13] = Toxicity in Sprague-Dawley rat assessed as no observed adverse effect level (NOAEL) treated for 14 days; settings: in vivo, time 14 day
[14] = Toxicity in CHO cells assessed as mutagenic effect by chromosome aberration test; type: cell-based, Cricetulus griseus; settings: chinese hamster
[15] = AUC (0 to infinity) in Sprague-Dawley rat at 2 mg/kg, IM measured upto 24 hrs by LC-MS/MS analysis; type: ADME, organism-based; settings: in vivo
[16] = target: Glycine receptor (alpha-1/beta) (Homo sapiens, UniProt P23415+P48167); assay: Inhibition of glycine receptor alpha1beta (unknown origin); type: toxicity
[17] = Volume of distribution at steady state in beagle dog at 2 mg/kg, iv measured upto 24 hrs by LC-MS/MS analysis; type: ADME, organism-based, Canis lupus familiaris; settings: in vivo
[18] = Maximum tolerated dose in Sprague-Dawley rat treated intravenously twice a day; type: toxicity, organism-based; settings: in vivo, route iv
Rattus norvegicus [19] = assay: Hemostatic effect in rt-PA enhanced Sprague-Dawley rat tail bleeding model assessed as reduction in tail bleeding time at 40 mg/kg infused into right jugular vein; type: functional, organism-based; settings: route iv
[20] = target: Tissue-type plasminogen activator (Rattus norvegicus) (UniProt P19637); assay: Inhibition of recombinant tissue plasminogen activator (rt-PA)-induced fibrinolysis in Sprague-Dawley rat fresh whole blood assessed as thrombus dissolution within 30 mins after reaching maximum amplitude (LY30) at > 3 uM by thromboelastography analysis; type: functional, tissue-based
[21] = AUC (0 to infinity) in Sprague-Dawley rat at 2 mg/kg, iv measured upto 24 hrs by LC-MS/MS analysis; type: ADME, organism-based; settings: in vivo
[22] = Half life in beagle dog at 2 mg/kg, IM measured upto 24 hrs by LC-MS/MS analysis; type: ADME, organism-based, Canis lupus familiaris; settings: in vivo
[23] = Clearance in Sprague-Dawley rat at 2 mg/kg, iv measured upto 24 hrs by LC-MS/MS analysis; type: ADME, organism-based; settings: in vivo
[24] = Toxicity in rat peripheral blood cells assessed as clastogenic effect by micronucleus test; type: cell-based; settings: erythrocyte
[25] = Volume of distribution at steady state in Sprague-Dawley rat at 2 mg/kg, iv measured upto 24 hrs by LC-MS/MS analysis; type: ADME, organism-based; settings: in vivo, read-out: Vdss
[26] = AUC (0 to infinity) in beagle dog at 2 mg/kg, iv measured upto 24 hrs by LC-MS/MS analysis; type: ADME, organism-based, Canis lupus familiaris; settings: in vivo
[27] = Half life in Sprague-Dawley rat at 2 mg/kg, IM measured upto 24 hrs by LC-MS/MS analysis; type: ADME, organism-based; settings: in vivo

T1 sequence (P00747 97-580 limits assumed): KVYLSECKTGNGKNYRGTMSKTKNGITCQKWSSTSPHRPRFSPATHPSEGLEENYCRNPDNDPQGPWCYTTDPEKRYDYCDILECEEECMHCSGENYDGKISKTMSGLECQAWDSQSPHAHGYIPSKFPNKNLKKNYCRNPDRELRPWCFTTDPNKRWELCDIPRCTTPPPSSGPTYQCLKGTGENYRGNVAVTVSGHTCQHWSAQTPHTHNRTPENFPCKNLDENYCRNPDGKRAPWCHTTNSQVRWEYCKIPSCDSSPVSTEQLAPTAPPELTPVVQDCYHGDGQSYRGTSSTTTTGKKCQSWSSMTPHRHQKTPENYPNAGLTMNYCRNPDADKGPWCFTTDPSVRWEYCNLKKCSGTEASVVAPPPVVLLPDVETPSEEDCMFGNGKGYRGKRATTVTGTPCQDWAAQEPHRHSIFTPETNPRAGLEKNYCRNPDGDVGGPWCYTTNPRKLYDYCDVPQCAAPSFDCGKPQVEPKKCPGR
T1 sequence (P00747 581-810 limits assumed): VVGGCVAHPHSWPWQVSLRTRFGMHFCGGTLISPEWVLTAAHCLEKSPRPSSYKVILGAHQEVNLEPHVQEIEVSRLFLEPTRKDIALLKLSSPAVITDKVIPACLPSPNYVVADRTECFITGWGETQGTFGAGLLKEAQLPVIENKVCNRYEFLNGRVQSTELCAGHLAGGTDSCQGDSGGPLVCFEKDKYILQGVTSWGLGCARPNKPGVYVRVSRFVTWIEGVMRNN
Chain of Tissue-type plasminogen activator (Rattus norvegicus) (P19637 whole entry): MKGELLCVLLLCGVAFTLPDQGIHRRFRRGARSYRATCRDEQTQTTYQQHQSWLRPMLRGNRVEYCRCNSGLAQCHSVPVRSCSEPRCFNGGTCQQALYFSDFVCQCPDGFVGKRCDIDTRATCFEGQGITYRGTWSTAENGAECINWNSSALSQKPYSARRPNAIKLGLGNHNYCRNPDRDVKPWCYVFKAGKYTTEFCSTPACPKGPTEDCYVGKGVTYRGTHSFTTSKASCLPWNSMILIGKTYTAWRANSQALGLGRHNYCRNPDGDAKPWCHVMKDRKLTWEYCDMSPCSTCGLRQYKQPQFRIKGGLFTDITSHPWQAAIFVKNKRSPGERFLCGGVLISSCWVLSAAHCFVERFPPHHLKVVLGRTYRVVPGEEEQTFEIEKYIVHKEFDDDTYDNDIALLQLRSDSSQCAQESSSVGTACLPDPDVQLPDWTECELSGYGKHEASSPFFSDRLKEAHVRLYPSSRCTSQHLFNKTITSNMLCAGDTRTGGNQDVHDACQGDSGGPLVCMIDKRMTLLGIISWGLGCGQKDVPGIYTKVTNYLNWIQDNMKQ
Chain of Glycine receptor (alpha-1/beta) (P23415 whole entry): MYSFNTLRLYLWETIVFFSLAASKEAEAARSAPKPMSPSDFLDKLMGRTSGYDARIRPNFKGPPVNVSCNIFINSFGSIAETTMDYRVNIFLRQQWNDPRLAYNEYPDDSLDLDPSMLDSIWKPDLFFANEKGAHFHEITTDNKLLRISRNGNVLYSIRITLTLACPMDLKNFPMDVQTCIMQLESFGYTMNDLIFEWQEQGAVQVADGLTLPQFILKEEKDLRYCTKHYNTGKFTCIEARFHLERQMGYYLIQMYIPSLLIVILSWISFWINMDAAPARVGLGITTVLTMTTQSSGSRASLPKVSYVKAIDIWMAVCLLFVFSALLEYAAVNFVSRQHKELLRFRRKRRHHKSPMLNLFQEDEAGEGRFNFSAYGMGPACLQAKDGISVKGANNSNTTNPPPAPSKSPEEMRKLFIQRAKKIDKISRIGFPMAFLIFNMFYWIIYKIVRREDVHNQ
Chain of Glycine receptor (alpha-1/beta) (P48167 whole entry): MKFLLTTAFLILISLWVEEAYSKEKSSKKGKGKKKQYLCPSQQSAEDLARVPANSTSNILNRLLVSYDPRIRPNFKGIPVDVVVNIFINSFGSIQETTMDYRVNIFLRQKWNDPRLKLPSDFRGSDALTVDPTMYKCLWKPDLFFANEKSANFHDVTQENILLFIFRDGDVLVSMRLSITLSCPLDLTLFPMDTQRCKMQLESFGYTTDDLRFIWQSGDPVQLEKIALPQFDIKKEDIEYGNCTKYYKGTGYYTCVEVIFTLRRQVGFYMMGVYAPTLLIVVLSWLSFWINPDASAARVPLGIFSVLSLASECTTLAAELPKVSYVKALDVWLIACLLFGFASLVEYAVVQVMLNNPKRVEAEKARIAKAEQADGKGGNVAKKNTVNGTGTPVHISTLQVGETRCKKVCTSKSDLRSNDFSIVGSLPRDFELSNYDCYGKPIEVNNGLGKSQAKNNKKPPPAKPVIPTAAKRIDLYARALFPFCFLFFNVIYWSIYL
Chain of Tissue-type plasminogen activator (Homo sapiens) (P00750 36-562 limits assumed): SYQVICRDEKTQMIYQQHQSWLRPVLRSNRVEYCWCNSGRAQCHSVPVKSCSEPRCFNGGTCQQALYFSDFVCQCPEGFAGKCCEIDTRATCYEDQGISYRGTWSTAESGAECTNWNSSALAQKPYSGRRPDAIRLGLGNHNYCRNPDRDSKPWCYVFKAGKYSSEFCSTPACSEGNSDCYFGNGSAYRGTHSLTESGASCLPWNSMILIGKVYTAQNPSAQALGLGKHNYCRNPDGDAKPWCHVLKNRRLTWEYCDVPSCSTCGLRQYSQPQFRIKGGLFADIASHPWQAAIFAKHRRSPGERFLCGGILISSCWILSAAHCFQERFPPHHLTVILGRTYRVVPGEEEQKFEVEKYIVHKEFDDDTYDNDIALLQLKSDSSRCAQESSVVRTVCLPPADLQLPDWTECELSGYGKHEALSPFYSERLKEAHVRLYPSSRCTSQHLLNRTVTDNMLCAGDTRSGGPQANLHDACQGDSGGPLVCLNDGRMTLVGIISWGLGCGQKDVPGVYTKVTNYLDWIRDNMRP
Chain of Voltage-gated inwardly rectifying potassium channel KCNH2 (Q12809 whole entry): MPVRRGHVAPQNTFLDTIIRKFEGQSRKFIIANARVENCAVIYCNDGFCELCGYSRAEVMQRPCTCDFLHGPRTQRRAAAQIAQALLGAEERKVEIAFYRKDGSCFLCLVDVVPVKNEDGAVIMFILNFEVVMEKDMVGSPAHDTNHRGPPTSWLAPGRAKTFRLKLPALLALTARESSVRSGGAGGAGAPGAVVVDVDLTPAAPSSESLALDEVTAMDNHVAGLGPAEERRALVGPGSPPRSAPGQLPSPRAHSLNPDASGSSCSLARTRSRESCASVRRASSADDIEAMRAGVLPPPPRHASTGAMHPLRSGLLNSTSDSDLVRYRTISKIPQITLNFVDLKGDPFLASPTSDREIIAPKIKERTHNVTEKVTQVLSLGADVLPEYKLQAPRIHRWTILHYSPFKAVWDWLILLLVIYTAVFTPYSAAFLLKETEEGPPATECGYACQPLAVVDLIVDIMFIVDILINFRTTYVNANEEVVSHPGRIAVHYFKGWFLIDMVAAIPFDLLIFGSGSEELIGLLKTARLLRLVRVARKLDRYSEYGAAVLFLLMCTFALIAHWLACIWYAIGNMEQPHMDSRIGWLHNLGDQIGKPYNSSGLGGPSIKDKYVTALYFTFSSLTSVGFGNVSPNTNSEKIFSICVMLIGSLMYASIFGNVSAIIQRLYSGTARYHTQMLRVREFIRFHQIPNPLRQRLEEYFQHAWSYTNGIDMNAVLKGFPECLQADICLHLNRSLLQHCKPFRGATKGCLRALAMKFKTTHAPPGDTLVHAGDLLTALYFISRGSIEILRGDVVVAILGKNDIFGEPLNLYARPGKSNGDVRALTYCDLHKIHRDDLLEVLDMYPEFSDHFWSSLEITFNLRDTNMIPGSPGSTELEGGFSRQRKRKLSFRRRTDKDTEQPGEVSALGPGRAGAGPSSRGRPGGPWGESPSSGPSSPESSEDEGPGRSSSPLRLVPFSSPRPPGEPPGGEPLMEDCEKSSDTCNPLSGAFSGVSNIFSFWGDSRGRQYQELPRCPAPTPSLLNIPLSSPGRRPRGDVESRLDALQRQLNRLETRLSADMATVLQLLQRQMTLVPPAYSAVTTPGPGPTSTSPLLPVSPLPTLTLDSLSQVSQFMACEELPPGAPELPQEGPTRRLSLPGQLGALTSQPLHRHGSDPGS

In the case of `Cl.O=P(O)(Cc1ccccc1)c1ccc2c(n1)CCNC2`, the “Ratio IC50” value (Blood) is reported as 1.29.

With `CCP(=O)(O)c1ccc2c(n1)CCNC2.Cl` the “Ratio IC50” value (Blood) was 0.86.

In the case of `CC(C)(C)CCC1Cc2nc(P(=O)(O)O)ccc2CN1.Cl` (mixture of isomers), the “Ratio IC50” value (Blood) is reported as 0.1.

With `CC(C)CCC1Cc2nc(P(=O)(O)O)ccc2CN1.Cl` (mixture of isomers) the “Ratio IC50” value (Blood) was 0.09.

For `CC(C)C1Cc2nc(P(=O)(O)O)ccc2CN1.Cl` (mixture of isomers), the “Ratio IC50” value (Blood) was 0.14.

In the case of `Cl.O=S(=O)(O)c1ccc2c(n1)CCNC2`, the “Ratio IC50” value (Blood) is reported as 0.93.

With `Cl.NC(=O)NC(=O)c1ccc2c(n1)CCNC2` the “Ratio IC50” value (Blood) was greater than 10.

For `Cl.O=P(O)(c1ccccc1)c1ccc2c(n1)CCNC2`, the “Ratio IC50” value (Blood) was 0.2.

With `CCCC1Cc2nc(P(=O)(O)O)ccc2CN1.Cl` (mixture of isomers) the “Ratio IC50” value (Blood) was 0.2.

With `CC(=O)NS(=O)(=O)c1ccc2c(n1)CCNC2.Cl` the “Ratio IC50” value (Blood) was greater than 10.

In the case of `Cl.O=P(O)(O)c1ccc2c(n1)CC(CCc1ccccc1)NC2` (mixture of isomers), the “Ratio IC50” value (Blood) is reported as 0.2.

For `Cl.O=C(O)c1cc2c(cn1)CNCC2`, the “Ratio IC50” value (Blood) was 4.33.

In the case of `Cl.O=C(O)c1nc2c(s1)CCNC2`, the “Ratio IC50” value (Blood) is reported as greater than 10.

`Cl.O=P(O)(O)c1ccc2c(n1)CCNC2` showed an IC90 [1] of 1010 nM, an MTD [2] greater than 500 mg/kg and an IC50 [3] greater than 300 µM. For the same molecule, the IC50 (Plasminogen [4]) was 8.42 µM, the Kd (Plasminogen [5]) was 21.1 µM and the IC50 [6] was 782 µM. It also gave a t1/2 [7] of 11.1 h, an AUC(0-inf) [8] of 16500 ng·h/mL and an NOAEL at 336 h [9] of 70 mg/kg. The Activity (Rattus norvegicus [10]) was “Active”, the half-life [11] was 152 min and the IC50 [12] was 1480 nM. For the same molecule, the IC90 (Homo sapiens) was 4.71 µM, the NOAEL at 336 h [13] was 60 mg/kg and the Activity [14] was “Non-toxic”. For the same molecule, the AUC(0-inf) [15] was 14200 ng·h/mL, the IC50 [16] was 540 µM and the Vdss [17] was 0.96 L/kg. The MTD [18] was greater than 500 mg/kg, the Activity (Rattus norvegicus [19]) was “Active” and the inhibition [20] was “Active”. The AUC(0-inf) [21] was 11600 ng·h/mL, the half-life [22] was 768 min and the clearance [23] was 2.64 mL/min/kg. For the same molecule, the Activity [24] was “Non-toxic”, the Vd [25] was 0.473 L/kg and the AUC [26] was 16600 ng·h/mL. The half-life [27] was 145 min and the “Ratio IC50” value (Blood) was 0.19.

In the case of `Cl.O=C(O)c1ccc2c(n1)CCNC2`, the “Ratio IC50” value (Blood) is reported as 0.25.

With `Cl.O=P(O)(O)c1ccc2c(n1)CC(Cc1ccccc1)NC2` (mixture of isomers) the “Ratio IC50” value (Blood) was 0.75.

In the case of `CCOP(=O)(O)c1ccc2c(n1)CCNC2.Cl`, the “Ratio IC50” value (Blood) is reported as 0.29.

With `Cl.O=P(O)(O)c1ccc2c(n1)C(N1CCOCC1)CNC2` (mixture of isomers) the “Ratio IC50” value (Blood) was 0.3.
